Source: PubChem BioAssay (NCI)
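The concentration for 50% growth inhibition is given as GI50. TGI: total growth inhibition.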

Assays:
Assay in all cases: NCI tumour cell line growth inhibition, 384-well format
[1] = test system: 786-0 renal
[2] = test system: A498 renal
[3] = test system: A549 NSCLC
[4] = test system: ACHN renal
[5] = test system: BT-549 breast
[6] = test system: CAKI-1 renal
[7] = test system: CCRF-CEM leukemia
[8] = test system: COLO 205 colon
[9] = test system: DU-145 prostate
[10] = test system: EKVX NSCLC
[11] = test system: HCC-2998 colon
[12] = test system: HCT-116 colon
[13] = test system: HL-60(TB) leukemia
[14] = test system: HOP-92 NSCLC
[15] = test system: HS 578T breast
[16] = test system: HT29 colon
[17] = test system: IGROV1 ovarian
[18] = test system: K-562 leukemia
[19] = test system: KM12 colon
[20] = test system: MCF7 breast
[21] = test system: MDA-MB-231 breast
[22] = test system: MDA-MB-435 melanoma
[23] = test system: MDA-MB-468 breast
[24] = test system: MOLT-4 leukemia
[25] = test system: NCI-H226 lung
[26] = test system: NCI-H23 lung
[27] = test system: NCI-H322M lung
[28] = test system: NCI-H460 NSCLC
[29] = test system: NCI-H522 lung
[30] = test system: NCI/ADR-RES ovarian
[31] = test system: OVCAR-3 ovarian
[32] = test system: OVCAR-4 ovarian
[33] = test system: OVCAR-5 ovarian
[34] = test system: OVCAR-8 ovarian
[35] = test system: PC-3 prostate
[36] = test system: RPMI-8226 leukemia
[37] = test system: RXF 393 renal
[38] = test system: SF-268 CNS
[39] = test system: SK-MEL-2 melanoma
[40] = test system: SK-MEL-28 melanoma
[41] = test system: SK-MEL-5 melanoma
[42] = test system: SK-OV-3 ovarian
[43] = test system: SN12C renal
[44] = test system: SNB-19 CNS
[45] = test system: SR leukemia
[46] = test system: SW-620 colon
[47] = test system: T-47D breast
[48] = test system: TK-10 renal
[49] = test system: U251 glioblastoma
[50] = test system: UACC-257 melanoma
[51] = test system: UO-31 renal

Q: `CC[C@@H]1C(=O)N(C)c2cnc(Nc3ccc(C(=O)NC4CCN(C)CC4)cc3OC)nc2N1C1CCCC1` was tested. Which GI50 [1] did it give?
A: < 10 nM

Q: And the TGI [1]?
A: 149 nM

Q: And the GI50 [2]?
A: < 10 nM

Q: And the TGI [2]?
A: 814 nM

Q: What about the GI50 [3] of the same molecule?
A: < 10 nM

Q: And the TGI [3]?
A: 121 nM

Q: What about the GI50 [4] of the same molecule?
A: 66.1 nM

Q: What about the TGI [4] of the same molecule?
A: 1560 nM

Q: What about the GI50 [5] of the same molecule?
A: < 10 nM

Q: And the TGI [5]?
A: < 10 nM

Q: And the GI50 [6]?
A: < 10 nM

Q: What about the TGI [6] of the same molecule?
A: 1270 nM

Q: And the GI50 [7]?
A: < 10 nM

Q: What about the TGI [7] of the same molecule?
A: < 10 nM

Q: And the GI50 [8]?
A: < 10 nM

Q: What about the TGI [8] of the same molecule?
A: < 10 nM

Q: And the GI50 [9]?
A: < 10 nM

Q: And the TGI [9]?
A: < 10 nM

Q: What about the GI50 [10] of the same molecule?
A: < 10 nM

Q: And the TGI [10]?
A: 62.1 nM

Q: And the GI50 [11]?
A: < 10 nM

Q: And the TGI [11]?
A: < 10 nM

Q: What about the GI50 [12] of the same molecule?
A: < 10 nM

Q: And the TGI [12]?
A: 135 nM

Q: What about the GI50 [13] of the same molecule?
A: < 10 nM

Q: What about the TGI [13] of the same molecule?
A: < 10 nM

Q: What about the GI50 [14] of the same molecule?
A: < 10 nM

Q: And the TGI [14]?
A: 1050 nM

Q: And the GI50 [15]?
A: < 10 nM

Q: What about the TGI [15] of the same molecule?
A: < 10 nM

Q: What about the GI50 [16] of the same molecule?
A: < 10 nM

Q: What about the TGI [16] of the same molecule?
A: 1090 nM

Q: And the GI50 [17]?
A: < 10 nM

Q: And the TGI [17]?
A: 224 nM

Q: And the GI50 [18]?
A: < 10 nM

Q: And the TGI [18]?
A: < 10 nM

Q: And the GI50 [19]?
A: < 10 nM

Q: What about the TGI [19] of the same molecule?
A: < 10 nM

Q: What about the GI50 [20] of the same molecule?
A: < 10 nM

Q: And the TGI [20]?
A: 904 nM

Q: What about the GI50 [21] of the same molecule?
A: < 10 nM

Q: What about the TGI [21] of the same molecule?
A: 1350 nM

Q: And the GI50 [22]?
A: < 10 nM

Q: And the TGI [22]?
A: < 10 nM

Q: What about the GI50 [23] of the same molecule?
A: < 10 nM

Q: What about the TGI [23] of the same molecule?
A: < 10 nM

Q: And the GI50 [24]?
A: < 10 nM

Q: And the TGI [24]?
A: < 10 nM

Q: What about the GI50 [25] of the same molecule?
A: 224 nM

Q: What about the TGI [25] of the same molecule?
A: 1920 nM

Q: And the GI50 [26]?
A: < 10 nM

Q: And the TGI [26]?
A: < 10 nM

Q: What about the GI50 [27] of the same molecule?
A: < 10 nM

Q: What about the TGI [27] of the same molecule?
A: 1400 nM

Q: And the GI50 [28]?
A: < 10 nM

Q: What about the TGI [28] of the same molecule?
A: < 10 nM

Q: And the GI50 [29]?
A: < 10 nM

Q: What about the TGI [29] of the same molecule?
A: < 10 nM

Q: What about the GI50 [30] of the same molecule?
A: 196 nM

Q: What about the TGI [30] of the same molecule?
A: 591 nM

Q: And the GI50 [31]?
A: < 10 nM

Q: And the TGI [31]?
A: < 10 nM

Q: What about the GI50 [32] of the same molecule?
A: 10.3 nM

Q: What about the TGI [32] of the same molecule?
A: 129 nM

Q: And the GI50 [33]?
A: < 10 nM

Q: What about the TGI [33] of the same molecule?
A: 226 nM

Q: What about the GI50 [34] of the same molecule?
A: < 10 nM

Q: And the TGI [34]?
A: < 10 nM

Q: What about the GI50 [35] of the same molecule?
A: < 10 nM

Q: And the TGI [35]?
A: 2460 nM

Q: And the GI50 [36]?
A: < 10 nM

Q: What about the TGI [36] of the same molecule?
A: < 10 nM

Q: And the GI50 [37]?
A: < 10 nM

Q: What about the TGI [37] of the same molecule?
A: < 10 nM

Q: And the GI50 [38]?
A: < 10 nM

Q: And the TGI [38]?
A: 414 nM

Q: What about the GI50 [39] of the same molecule?
A: < 10 nM

Q: What about the TGI [39] of the same molecule?
A: < 10 nM

Q: And the GI50 [40]?
A: < 10 nM

Q: What about the TGI [40] of the same molecule?
A: 1920 nM

Q: What about the GI50 [41] of the same molecule?
A: < 10 nM

Q: And the TGI [41]?
A: < 10 nM

Q: And the GI50 [42]?
A: < 10 nM

Q: And the TGI [42]?
A: 107 nM

Q: And the GI50 [43]?
A: < 10 nM

Q: And the TGI [43]?
A: 880 nM

Q: And the GI50 [44]?
A: < 10 nM

Q: What about the TGI [44] of the same molecule?
A: 269 nM

Q: And the GI50 [45]?
A: < 10 nM

Q: And the TGI [45]?
A: < 10 nM

Q: And the GI50 [46]?
A: < 10 nM

Q: What about the TGI [46] of the same molecule?
A: < 10 nM

Q: What about the GI50 [47] of the same molecule?
A: < 10 nM

Q: What about the TGI [47] of the same molecule?
A: 166 nM

Q: What about the GI50 [48] of the same molecule?
A: < 10 nM

Q: And the TGI [48]?
A: 235 nM

Q: And the GI50 [49]?
A: < 10 nM

Q: And the TGI [49]?
A: 85.6 nM

Q: And the GI50 [50]?
A: < 10 nM

Q: What about the TGI [50] of the same molecule?
A: 1700 nM

Q: What about the GI50 [51] of the same molecule?
A: 77.1 nM

Q: What about the TGI [51] of the same molecule?
A: 1480 nM
